Measurements from patent EP1584686A1, “Progenitor cell preservation factors and related methods and products” (ImClone Systems Incorporated, priority 1999, dated 2001).
Values belong to the molecule of their own block, whether it stands above or below them.

Experiments:
[1] = biological target: T1, Dl-FRIL (Lablab purpureus, UniProt Q9ZTA9); settings: Mo et al., Glycobiology 9:173-179,1999; cited from earlier work
T1 sequence (Q9ZTA9 9-272): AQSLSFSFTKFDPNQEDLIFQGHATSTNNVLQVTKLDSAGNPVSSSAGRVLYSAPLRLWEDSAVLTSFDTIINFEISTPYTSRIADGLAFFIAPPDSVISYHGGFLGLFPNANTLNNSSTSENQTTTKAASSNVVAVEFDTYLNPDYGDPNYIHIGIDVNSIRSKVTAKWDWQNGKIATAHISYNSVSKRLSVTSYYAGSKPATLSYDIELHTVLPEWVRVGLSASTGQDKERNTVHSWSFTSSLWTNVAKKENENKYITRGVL

[2] = system: mice; settings: single dose 150 mg/kg; Lerner and Harrison 1990; cited from earlier work
[3] = biological target: FLT3 receptor on FLT3-transfected 3T3 cells (chimeric murine FLT3/human Fms receptor or full length human receptor, not told apart); assay: cell-based or functional assay

Molecule: OC[C@H]1O[C@H](O[C@H]2O[C@H](CO)[C@@H](O)[C@H](O)[C@H]2O)[C@H](O)[C@@H](O)[C@@H]1O [α,α-trehalose]
potency greater than mannose [1]: 3.6 fold

Molecule: O=c1[nH]cc(F)c(=O)[nH]1 [5-FU, 5-fluorouracil]
reduction of bone marrow cellularity [2]: > 90%

Specific Activity (u/mg) in the Flt3 3T3 assay, after the Superdex 75 step [3]: 244000 units/mg
Molecule: Pv-FRIL (Phaseolus vulgaris FRIL), native, purified from PHA-LCM or from red kidney bean extract
